Data reported in patent publication US10646488B2 (Araxes Pharma LLC, priority 2016, dated 2020).

target: T1, KRAS G12C 1-169, his-tagged protein, GDP-loaded (Homo sapiens, UniProt P01116, G12C); test: Covalent binding (% modification) to KRAS G12C by mass spectrometry; settings: covalent binding to KRAS G12C after a ten minute incubation period; further: test concentration or dose not given here
T1 construct: KRAS G12C 1-169, his-tagged protein, GDP-loaded

Compound	Binding %
C=CC(=O)N1C[C@@H](C)N(c2nc(OCCc3ccccn3)nc3c(F)c(-c4c(O)cccc4F)c(Cl)cc23)[C@@H](C)C1 [Compound 49, 1-((3S,5R)-4-(6-chloro-8-fluoro-7-(2-fluoro-6-hydroxyphenyl)-2-(2-(pyridin-2-yl)ethoxy)quinazolin-4-yl)-3,5-dimethyl-piperazin-1-yl) prop-2-en-1-one]	++ (++ indicates binding activity from 50 to 90%)
C=CC(=O)N1C[C@H](C)N(c2nc(NC3CCN(C4CC4)CC3)nc3c(F)c(-c4c(C)ccc5[nH]ncc45)c(Cl)cc23)C[C@H]1C [Compound 50, 1-((2R,5S)-4-(6-chloro-2-((1-cyclopropyl-piperidin-4-yl)amino)-8-fluoro-7-(5-methyl-1H-indazol-4-yl)quinazolin-4-yl)-2,5-dimethyl-piperazin-1-yl) prop-2-en-1-one]	++ (++ indicates binding activity from 50 to 90%)
C=CC(=O)N1C[C@H](C)N(c2nc(O)nc3c(F)c(-c4c(O)cccc4F)c(Cl)cc23)C[C@H]1C [Compound 51, 1-((2R,5S)-4-(6-chloro-8-fluoro-7-(2-fluoro-6-hydroxyphenyl)-2-hydroxy-quinazolin-4-yl)-2,5-dimethyl-piperazin-1-yl) prop-2-en-1-one]	+ (+ indicates binding activity up to 50%)
C=CC(=O)N1C[C@H](C)N(c2nc(N3CC(N(C)C)C3)nc3c(F)c(-c4c(C)ccc5[nH]ncc45)c(Cl)cc23)C[C@H]1C [Compound 54, 1-((2R,5S)-4-(6-chloro-2-(3-(dimethylamino)azetidin-1-yl)-8-fluoro-7-(5-methyl-1H-indazol-4-yl)quinazolin-4-yl)-2,5-dimethyl-piperazin-1-yl) prop-2-en-1-one]	+++ (+++ indicates binding activity greater than 90%)
C=CC(=O)N1C[C@H](C)N(c2nc(OCCN3CC(F)(F)C3)nc3c(F)c(-c4c(C)ccc5[nH]ncc45)c(Cl)cc23)C[C@H]1C [Compound 55, 1-((2R,5S)-4-(6-chloro-2-(2-(3,3-difluoroazetidin-1-yl)ethoxy)-8-fluoro-7-(5-methyl-1H-indazol-4-yl)quinazolin-4-yl)-2,5-dimethyl-piperazin-1-yl) prop-2-en-1-one]	+++ (+++ indicates binding activity greater than 90%)
C=CC(=O)N1CCN(c2nc(N3CC(N(C)C)C3)nc3c(F)c(-c4c(O)cccc4F)c(Cl)cc23)C[C@H]1C [Compound 56, 1-((2R)-4-(6-chloro-2-(3-(dimethylamino)azetidin-1-yl)-8-fluoro-7-(2-fluoro-6-hydroxyphenyl)quinazolin-4-yl)-2-methylpiperazin-1-yl)prop-2-en-1-one]	+++ (+++ indicates binding activity greater than 90%)
C=CC(=O)N1CCN(c2nc(OCCN3CC(F)(F)C3)nc3c(F)c(-c4c(O)cccc4F)c(Cl)cc23)C[C@H]1C [Compound 57, 1-((2R)-4-(6-chloro-2-(2-(3,3-difluoroazetidin-1-yl)ethoxy)-8-fluoro-7-(2-fluoro-6-hydroxyphenyl)quinazolin-4-yl)-2-methyl-piperazin-1-yl) prop-2-en-1-one]	+++ (+++ indicates binding activity greater than 90%)
C=CC(=O)N1C[C@@H](C)N(c2nc(N3CC(CO)C3)nc3c(F)c(-c4c(O)cccc4F)c(Cl)cc23)[C@@H](C)C1 [Compound 64, 1-((3R,5S)-4-(6-chloro-8-fluoro-7-(2-fluoro-6-hydroxyphenyl)-2-(3-(hydroxy-methyl)azetidin-1-yl)quinazolin-4-yl)-3,5-dimethyl-piperazin-1-yl) prop-2-en-1-one]	++ (++ indicates binding activity from 50 to 90%)
C=CC(=O)N1C[C@H](C)N(c2nc(OCCc3ccccn3)nc3c(F)c(-c4c(O)cccc4F)c(Cl)cc23)C[C@H]1C [Compound 65, 1-((2R,5S)-4-(6-chloro-8-fluoro-7-(2-fluoro-6-hydroxyphenyl)-2-(2-(pyridin-2-yl)ethoxy)quinazolin-4-yl)-2,5-dimethyl-piperazin-1-yl) prop-2-en-1-one]	+++ (+++ indicates binding activity greater than 90%)
C=CC(=O)N1C[C@@H](C)N(c2nc(N3CC(O)C3)nc3c(F)c(-c4c(O)cccc4F)c(Cl)cc23)[C@@H](C)C1 [Compound 66, 1-((3R,5S)-4-(6-chloro-8-fluoro-7-(2-fluoro-6-hydroxyphenyl)-2-(3-hydroxyazetidin-1-yl)quinazolin-4-yl)-3,5-dimethyl-piperazin-1-yl) prop-2-en-1-one]	+++ (+++ indicates binding activity greater than 90%)
C=CC(=O)N1[C@H](C)CN(c2nc(N3CC(N(C)C)C3)nc3c(F)c(-c4c(O)cccc4F)c(Cl)cc23)C[C@@H]1C [Compound 67, 1-((2R,6S)-4-((S)-6-chloro-2-(3-(dimethylamino)azetidin-1-yl)-8-fluoro-7-(2-fluoro-6-hydroxyphenyl)quinazolin-4-yl)-2,6-dimethyl-piperazin-1-yl) prop-2-en-1-one]	+ (+ indicates binding activity up to 50%)
C=CC(=O)N1[C@H](C)CN(c2nc(N3CC(N(C)C)C3)nc3c(F)c(-c4c(O)cccc4F)c(Cl)cc23)C[C@@H]1C [Compound 68, 1-((2R,6S)-4-((R)-6-chloro-2-(3-(dimethylamino)azetidin-1-yl)-8-fluoro-7-(2-fluoro-6-hydroxyphenyl)quinazolin-4-yl)-2,6-dimethyl-piperazin-1-yl) prop-2-en-1-one]	+++ (+++ indicates binding activity greater than 90%)
C=CC(=O)N1CCN(c2nc(N3CC(N(C)C)C3)nc3c(F)c(-c4c(C)ccc5cn[nH]c45)c(Cl)cc23)C[C@H]1C [Compound 69, 1-((2R)-4-(6-chloro-2-(3-(dimethylamino)azetidin-1-yl)-8-fluoro-7-(6-methyl-1H-indazol-7-yl)quinazolin-4-yl)-2-methyl-piperazin-1-yl) prop-2-en-1-one]	+++ (+++ indicates binding activity greater than 90%)
C=CC(=O)N1CCN(c2c(C#N)c(N3CC(N(C)C)C3)nc3c(F)c(-c4c(O)cccc4F)c(Cl)cc23)C[C@H]1C [Compound 76]	+ (+ indicates binding activity up to 50%)
C=CC(=O)N1C[C@H](C)N(c2nc(OCCN(CC)CC)nc3c(F)c(-c4c(C)ccc5[nH]ncc45)c(Cl)cc23)C[C@H]1C [Compound 77, 1-((2R,5S)-4-(6-chloro-2-(2-(diethylamino)ethoxy)-8-fluoro-7-(5-methyl-1H-indazol-4-yl)quinazolin-4-yl)-2,5-dimethyl-piperazin-1-yl) prop-2-en-1-one]	+++ (+++ indicates binding activity greater than 90%)
C=CC(=O)N1C[C@H](C)N(c2nc(OC3CCN(C4CC4)CC3)nc3c(F)c(-c4c(C)ccc5[nH]ncc45)c(Cl)cc23)C[C@H]1C [Compound 78, 1-((2R,5S)-4-(6-chloro-2-((1-cyclopropyl-piperidin-4-yl)oxy)-8-fluoro-7-(5-methyl-1H-indazol-4-yl)quinazolin-4-yl)-2,5-dimethyl-piperazin-1-yl) prop-2-en-1-one]	++ (++ indicates binding activity from 50 to 90%)
C=CC(=O)N1C[C@H](C)N(c2nc(OC3CCN(C(C)C)CC3)nc3c(F)c(-c4c(C)ccc5[nH]ncc45)c(Cl)cc23)C[C@H]1C [Compound 79, 1-((2R,5S)-4-(6-chloro-8-fluoro-2-((1-isopropyl-piperidin-4-yl)oxy)-7-(5-methyl-1H-indazol-4-yl)quinazolin-4-yl)-2,5-dimethyl-piperazin-1-yl) prop-2-en-1-one]	+++ (+++ indicates binding activity greater than 90%)
C=CC(=O)N1C[C@@H](C)N(c2nc(N3CC(N(C)C)C3)nc3c(F)c(-c4c(O)cccc4F)c(Cl)cc23)C[C@H]1C [Compound 80, 1-((2R,5R)-4-(6-chloro-2-(3-(dimethylamino)azetidin-1-yl)-8-fluoro-7-(2-fluoro-6-hydroxyphenyl)quinazolin-4-yl)-2,5-dimethyl-piperazin-1-yl) prop-2-en-1-one]	+ (+ indicates binding activity up to 50%)
C=CC(=O)N1C[C@@H](C)N(c2nc(N3CC(N(C)C)C3)nc3c(F)c(-c4c(O)cccc4F)c(Cl)cc23)C[C@@H]1C [Compound 81, 1-((2S,5R)-4-(6-chloro-2-(3-(dimethylamino)azetidin-1-yl)-8-fluoro-7-(2-fluoro-6-hydroxyphenyl)quinazolin-4-yl)-2,5-dimethyl-piperazin-1-yl) prop-2-en-1-one]	+ (+ indicates binding activity up to 50%)
C=CC(=O)N1CCN(c2nc(N3CC(N(C)C)C3)nc3c(F)c(-c4c(O)cccc4F)c(Cl)cc23)C[C@@H]1C [Compound 82, 1-((2S)-4-(6-chloro-2-(3-(dimethylamino)azetidin-1-yl)-8-fluoro-7-(2-fluoro-6-hydroxyphenyl)quinazolin-4-yl)-2-methyl-piperazin-1-yl) prop-2-en-1-one]	++ (++ indicates binding activity from 50 to 90%)

same assay, conditions: covalent binding to KRAS G12C after a three minute incubation period

Compound	Binding %
C=CC(=O)N1CCN(c2nc(OCCN(CC)CC)nc3c(F)c(-c4c(O)cccc4F)c(Cl)cc23)C[C@H]1C [Compound 85, 1-((2R)-4-(6-chloro-2-(2-(diethylamino)ethoxy)-8-fluoro-7-(2-fluoro-6-hydroxyphenyl)quinazolin-4-yl)-2-methyl-piperazin-1-yl) prop-2-en-1-one]	++ (++ indicates binding activity from 50 to 90%)
C=CC(=O)N1C[C@@H](C)N(c2nc(N3CC(N(C)C)C3)nc3c(F)c(-c4c(O)cccc4F)c(Cl)cc23)C[C@H]1C [Compound 86, 1-((2R,5R)-4-(6-chloro-2-(3-(dimethylamino)azetidin-1-yl)-8-fluoro-7-(2-fluoro-6-hydroxyphenyl)quinazolin-4-yl)-2,5-dimethyl-piperazin-1-yl) prop-2-en-1-one]	+ (+ indicates binding activity greater than 0% and up to 50%)
C=CC(=O)N1C[C@@H](C)N(c2nc(N3CC(N(C)C)C3)nc3c(F)c(-c4c(O)cccc4F)c(Cl)cc23)C[C@@H]1C [Compound 87, 1-((2S,5R)-4-(6-chloro-2-(3-(dimethylamino)azetidin-1-yl)-8-fluoro-7-(2-fluoro-6-hydroxyphenyl)quinazolin-4-yl)-2,5-dimethyl-piperazin-1-yl) prop-2-en-1-one]	+ (+ indicates binding activity greater than 0% and up to 50%)
